Experimental data: US20230047569A1, “PESTICIDAL COMPLEX COMPOSITIONS FOR SYNERGISTIC DELIVERY OF PESTICIDAL ACTIVE INGREDIENTS AND METHODS OF SELECTION THEREOF” (0903608 B.C. Ltd., priority 2019, published 2023)

Tests used:
Trichoplusia ni = experiment: In-planta insecticidal efficacy on sprayed green cabbage plants (Abbott and Colby formulas); format: in vivo; conditions: 6 days; for Survival Rate (%): Coragen […] (0.104 ppm chlorantraniliprole) and/or aliphatic acid 750 ppm, 10% isopropanol; for Observed Efficacy, W (%): Coragen […] and/or aliphatic acid 750 ppm, Abbott corrected vs 10% isopropanol control
Protocol: Water and 10% isopropanol were tested as control treatments.
Green cabbage plants (Brassica oleracea var. capitate, Danish Ballhead cultivar) were grown from seed (available from West Coast Seeds, Delta, BC, Canada) in potting soil for 4-6 weeks in a pest-free indoor growing environment. At between 4-6 weeks of age, each cabbage plant was sprayed with 20 mL of treatment solution using a pressurized CO2 sprayer from approximately 18 inches above the plant, and allowed to dry.
While for SF<1, antagonism is present and for SF=1, the efficacy of the compounds is merely additive.

[1] = Solubility / effective solubilized concentration in 10% DMSO/90% PDB by HPLC; conditions: working stock: DMSO stock diluted 10-fold in PDB
Protocol: This solution was diluted 10-fold in potato dextrose broth (PDB) to give a concentration of 0.05 mg/mL in 10% DMSO/90% PDB.
Concentrated stock solutions were prepared by dissolving pesticidal active ingredient in 100% dimethylsulfoxide (DMSO), which were then diluted 10-fold in potato dextrose broth (PDB) to give a working stock solution, as described below: […]

SMILES | Survival Rate (%) (Trichoplusia ni) | Observed Efficacy, W (%) (Trichoplusia ni) | effective solubilized concentration [1]
O=C(O)CCCCCCCCCO [10-hydroxydecanoic acid] | 40.50% | 36.72% | 
CCC(N)C(=O)O (stereo not shown) [2-aminobutyric acid] | 58.50% | 8.59% | 
CO/C=C(/C(=O)OC)c1ccccc1Oc1cc(Oc2ccccc2C#N)ncn1 [Azoxystrobin, azoxystrobin] |  |  | 0.15 mg/mL
CCC(C)CCC(=O)O (stereo not shown) [4-methylhexanoic acid] | 62.50% | 2.34% | 
